Hemolysis data for one substance are collected here from US11446238B2, “Injectable dendrimer hydrogel nanoparticles” (Wayne State University, priority 2010, dated 2022).

This series has as its system Red blood cell (RBC). Nature of the series: Red blood cell lysis (hemolysis). The settings on record: 1% Triton X-100, positive control.

Triton X-100 yielded a hemolysis of 100%.
